Columns and labels:
Format in all cases: cell-based
[1] = system: Staphylococcus haemolyticus 415; assay: MIC, standard broth micro-dilution assay, SH 415; parameters: unit not given here
Description: (§1) The antibacterial efficacy of the present compounds is illustrated by Table II. The minimal inhibitory concentrations (MICs) were determined using a standard broth micro-dilution assay.

[2] = system: Enterococcus faecium and faecalis (RESISTANT); conditions: geometric mean of 4-6 isolates
Description: as §1

[3] = system: Staphylococcus haemolyticus 105; assay: MIC, standard broth micro-dilution assay, SH 105; parameters: unit not given here
Description: as §1

[4] = system: Streptococcus pyogenes C203; assay: MIC, standard broth micro-dilution assay, SPY C203; parameters: unit not given here
Description: as §1

[5] = system: Staphylococcus aureus 446; assay: MIC, standard broth micro-dilution assay, SA 446; parameters: unit not given here
Description: as §1

[6] = system: Staphylococcus aureus 447; assay: MIC, standard broth micro-dilution assay, SA 447; parameters: unit not given here
Description: as §1

[7] = system: Enterococcus faecium and faecalis (SENSITIVE); assay: MIC, standard broth micro-dilution assay, SENSITIVE enterococci; parameters: unit not given here; conditions: geometric mean of 4-6 isolates
Description: as §1

[8] = system: Staphylococcus epidermidis 270; assay: MIC, standard broth micro-dilution assay, SE 270; parameters: unit not given here
Description: as §1

[9] = system: Staphylococcus aureus 489; assay: MIC, standard broth micro-dilution assay, SA 489; parameters: unit not given here
Description: as §1

[10] = system: Streptococcus pneumoniae P1; assay: MIC, standard broth micro-dilution assay, SPN P1; parameters: unit not given here
Description: as §1

Row | Compound | Minimal Inhibitory Concentration (MIC) SH 415 [1] | Minimal Inhibitory Concentration (MIC) RESISTANT [2] | Minimal Inhibitory Concentration (MIC) SH 105 [3] | Minimal Inhibitory Concentration (MIC) SPY C203 [4] | Minimal Inhibitory Concentration (MIC) SA 446 [5] | Minimal Inhibitory Concentration (MIC) SA 447 [6] | Minimal Inhibitory Concentration (MIC) SENSITIVE [7] | Minimal Inhibitory Concentration (MIC) SE 270 [8] | Minimal Inhibitory Concentration (MIC) SA 489 [9] | Minimal Inhibitory Concentration (MIC) SPN P1 [10]
1 | CC1OC(OC2c3ccc(c(Cl)c3)Oc3cc4cc(c3OC3OC(CO)C(O)C(O)C3OC3CC(C)(N)C(O)C(C)O3)Oc3ccc(cc3Cl)C(O)C(NCCCCCCCCCCCCc3ccccc3)C(=O)NC(CC(N)=O)C(=O)NC4C(=O)NC3C(=O)NC2C(=O)NC(C(=O)O)c2cc(O)cc(O)c2-c2cc3ccc2O)CC(C)(N)C1O (centres unmarked) [Example 1, N^1 -(12-PHENYL-n-DODECYL)DESLEUCYL-A82846B] | 8 | 13 | 4 | 0.125 | 8 | 2 | 9.2 | 4 | 2 | 
2 | C[C@@H]1O[C@@H](O[C@@H]2c3ccc(c(Cl)c3)Oc3cc4cc(c3O[C@@H]3O[C@H](CO)[C@@H](O)[C@H](O)[C@H]3O[C@H]3C[C@](C)(NCc5ccc(-c6ccccc6)cc5)[C@@H](O)[C@H](C)O3)Oc3ccc(cc3Cl)[C@@H](O)[C@@H](NCCCCCCCCCCCCc3ccccc3)C(=O)N[C@@H](CC(N)=O)C(=O)N[C@H]4C(=O)N[C@H]3C(=O)N[C@@H]2C(=O)N[C@H](C(=O)O)c2cc(O)cc(O)c2-c2cc3ccc2O)C[C@](C)(N)[C@H]1O [Example 2, N^1 -(12-PHENYL-n-DODECYL)-N^DISACC -(p-PHENYLBENZYL)-DESLEUCYL-A82846B] | > 64 | 45 | > 64 | 4 | 32 | > 64 | 24 | 32 | 64 | ≤ .06
3 | C[C@@H]1O[C@@H](O[C@H]2[C@H](Oc3c4cc5cc3Oc3ccc(cc3Cl)[C@@H](O[C@H]3C[C@](C)(N)[C@@H](O)[C@H](C)O3)[C@@H]3NC(=O)[C@H](NC(=O)[C@@H]5NC(=O)[C@H](CC(N)=O)NC(=O)[C@H](NCc5ccc(-c6ccccc6)cc5)[C@H](O)c5ccc(c(Cl)c5)O4)c4ccc(O)c(c4)-c4c(O)cc(O)cc4[C@@H](C(=O)O)NC3=O)O[C@H](CO)[C@@H](O)[C@@H]2O)C[C@](C)(N)[C@H]1O [Example 3, N^1- (p-PHENYLBENZYL)-DESLEUCYL-A82846B] | 16 | > 128 | 8 | ≤ .06 | 8 | 8 | 21 | 8 | 8 | ≤ .06
4 | C[C@@H]1O[C@@H](O[C@@H]2c3ccc(c(Cl)c3)Oc3cc4cc(c3O[C@@H]3O[C@H](CO)[C@@H](O)[C@H](O)[C@H]3O[C@H]3C[C@](C)(NCc5ccc(-c6ccccc6)cc5)[C@@H](O)[C@H](C)O3)Oc3ccc(cc3Cl)[C@@H](O)[C@@H](NCc3ccc(-c5ccccc5)cc3)C(=O)N[C@@H](CC(N)=O)C(=O)N[C@H]4C(=O)N[C@H]3C(=O)N[C@@H]2C(=O)N[C@H](C(=O)O)c2cc(O)cc(O)c2-c2cc3ccc2O)C[C@](C)(N)[C@H]1O [Example 4, N^1,N^DISACC -BIS(p-PHENYLBENZYL)-DESLEUCYL-A82846B] | 2 | 53 | 2 | ≤ .06 | 4 | 2 | 21 | 2 | 2 | ≤ .06
5 | C[C@@H]1O[C@@H](O[C@@H]2c3ccc(c(Cl)c3)Oc3cc4cc(c3O[C@@H]3O[C@H](CO)[C@@H](O)[C@H](O)[C@H]3O[C@H]3C[C@](C)(NCc5ccc(-c6ccccc6)cc5)[C@@H](O)[C@H](C)O3)Oc3ccc(cc3Cl)[C@@H](O)[C@@H](NCc3ccccc3)C(=O)N[C@@H](CC(N)=O)C(=O)N[C@H]4C(=O)N[C@H]3C(=O)N[C@@H]2C(=O)N[C@H](C(=O)O)c2cc(O)cc(O)c2-c2cc3ccc2O)C[C@](C)(N)[C@H]1O [Example 5, N^1 -BENZYL-N^DISACC -(p-PHENYLBENZYL)-DESLEUCYL-A82846B] | 2 | 23 | 2 | 0.125 | 2 | 2 | 9.2 | 2 | 2 | 0.5
6 | C[C@@H]1O[C@@H](O[C@H]2[C@H](Oc3c4cc5cc3Oc3ccc(cc3Cl)[C@@H](O[C@H]3C[C@](C)(NCc6ccccc6)[C@@H](O)[C@H](C)O3)[C@@H]3NC(=O)[C@H](NC(=O)[C@@H]5NC(=O)[C@H](CC(N)=O)NC(=O)[C@H](NCc5ccccc5)[C@H](O)c5ccc(c(Cl)c5)O4)c4ccc(O)c(c4)-c4c(O)cc(O)cc4[C@@H](C(=O)O)NC3=O)O[C@H](CO)[C@@H](O)[C@@H]2O)C[C@](C)(NCc2ccc(-c3ccccc3)cc2)[C@H]1O [Example 6, N^1,N^MONOSACC -DIBENZYL-N^DISACC -(p-PHENYLBENZYL)-DESLEUCYL-A82846B] | 1 | 16 | 0.5 | 0.125 | 2 | 2 | 6.1 | 0.5 | 2 | 0.5
7 | CCCCCCN[C@H]1C(=O)N[C@@H](CC(N)=O)C(=O)N[C@H]2C(=O)N[C@H]3C(=O)N[C@H](C(=O)N[C@H](C(=O)O)c4cc(O)cc(O)c4-c4cc3ccc4O)[C@H](O[C@H]3C[C@](C)(N)[C@@H](O)[C@H](C)O3)c3ccc(c(Cl)c3)Oc3cc2cc(c3O[C@@H]2O[C@H](CO)[C@@H](O)[C@H](O)[C@H]2O[C@H]2C[C@](C)(NCCCCCC)[C@@H](O)[C@H](C)O2)Oc2ccc(cc2Cl)[C@H]1O [Example 7, N^1,N^DISACC -DIHEXYLDESLEUCYL-A82846B] | 8 | > 128 | 4 | 8 | 16 | 8 | 111 | 16 | 8 | 8
8 | CCCCCCN[C@H]1C(=O)N[C@@H](CC(N)=O)C(=O)N[C@H]2C(=O)N[C@H]3C(=O)N[C@H](C(=O)N[C@H](C(=O)O)c4cc(O)cc(O)c4-c4cc3ccc4O)[C@H](O[C@H]3C[C@](C)(NCCCCCC)[C@@H](O)[C@H](C)O3)c3ccc(c(Cl)c3)Oc3cc2cc(c3O[C@@H]2O[C@H](CO)[C@@H](O)[C@H](O)[C@H]2O[C@H]2C[C@](C)(NCCCCCC)[C@@H](O)[C@H](C)O2)Oc2ccc(cc2Cl)[C@H]1O [Example 8, N^1,N^DISACC,N^MONOSACC -TRI-n-HEXYLDESLEUCYL-A82846B] | 16 | 76 | 4 | 1 | 16 | 8 | 55 | 8 | 8 | 2
9 | C[C@@H]1O[C@@H](O[C@@H]2c3ccc(c(Cl)c3)Oc3cc4cc(c3O[C@@H]3O[C@H](CO)[C@@H](O)[C@H](O)[C@H]3O[C@H]3C[C@](C)(NCc5ccc(O)cc5)[C@@H](O)[C@H](C)O3)Oc3ccc(cc3Cl)[C@@H](O)[C@@H](NCc3ccc(O)cc3)C(=O)N[C@@H](CC(N)=O)C(=O)N[C@H]4C(=O)N[C@H]3C(=O)N[C@@H]2C(=O)N[C@H](C(=O)O)c2cc(O)cc(O)c2-c2cc3ccc2O)C[C@](C)(N)[C@H]1O [Example 9, N^1,N^DISACC -BIS(p-HYDROXYBENZYL)-DESLEUCYL-A82846B] | 32 | > 128 | 32 | 16 | 16 | 16 | > 128 | 32 | 16 | 32

Source: patent US5977063A, “Alkylated hexapeptides” (Eli Lilly and Company, priority 1998, dated 1999)
